# Paper PMC7545214, “Structural basis for energy transfer in a huge diatom PSI-FCPI supercomplex” (Nature Communications, 2020)
# Tests used:
# [1] = molecular target: T1, PSI core of the PSI-FCPI supercomplex (Chaetoceros neogracilis, UniProt A0A6J4B0E7+A0A6J4B109); assay: cryo-EM structure, […] Å; format: binding; conditions: two molecules bound to PsaA/B/R
# T1 construct: gene psaA; native purification from thylakoids with DDM; PsaS modelled as polyalanine; with Photosystem I iron-sulfur center; Photosystem I reaction center subunit II; Photosystem I reaction center subunit IV; Photosystem I reaction center subunit III; Photosystem I reaction center subunit VIII; Photosystem I reaction center subunit IX; Photosystem I reaction center subunit XI; Photosystem I reaction center subunit XII; Photosystem I subunit PsaR; Photosystem I subunit PsaS
# [2] = molecular target: T2, PsaR (Chaetoceros neogracilis, UniProt A0A6J4B118); assay: cryo-EM structure, […] Å; format: binding; conditions: one molecule
# T2 construct: gene psa28; native, within the PSI-FCPI supercomplex; 89 residues, two transmembrane helices; next to PsaB and FCPI-8/9/10
# T2 sequence (A0A6J4B118 51-139): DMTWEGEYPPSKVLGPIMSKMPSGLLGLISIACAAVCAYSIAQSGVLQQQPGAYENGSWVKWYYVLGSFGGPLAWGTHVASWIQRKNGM
# T1 sequence (A0A6J4B0E7 1-733, one chain of several): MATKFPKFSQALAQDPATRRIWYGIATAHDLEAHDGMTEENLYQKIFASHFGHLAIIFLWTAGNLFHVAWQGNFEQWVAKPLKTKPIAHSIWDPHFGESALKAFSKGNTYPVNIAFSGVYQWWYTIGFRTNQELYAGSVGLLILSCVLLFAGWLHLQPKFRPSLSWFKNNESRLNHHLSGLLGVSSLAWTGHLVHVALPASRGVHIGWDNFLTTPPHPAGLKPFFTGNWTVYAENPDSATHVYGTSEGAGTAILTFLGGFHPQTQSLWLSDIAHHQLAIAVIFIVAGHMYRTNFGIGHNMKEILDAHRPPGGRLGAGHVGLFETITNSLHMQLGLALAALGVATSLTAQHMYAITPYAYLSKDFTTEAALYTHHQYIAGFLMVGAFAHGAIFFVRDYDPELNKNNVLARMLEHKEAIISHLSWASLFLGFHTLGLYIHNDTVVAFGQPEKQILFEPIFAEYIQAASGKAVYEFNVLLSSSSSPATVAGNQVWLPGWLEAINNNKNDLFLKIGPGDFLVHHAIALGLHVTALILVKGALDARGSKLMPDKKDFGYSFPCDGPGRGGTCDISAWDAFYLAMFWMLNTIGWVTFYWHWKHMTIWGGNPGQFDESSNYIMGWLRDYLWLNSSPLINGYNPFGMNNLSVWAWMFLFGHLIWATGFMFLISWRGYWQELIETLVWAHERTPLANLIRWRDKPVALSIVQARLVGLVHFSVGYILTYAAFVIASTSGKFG
SMILES,"cryo-EM structure, 2.38 Å ([1]; chain of each in supplement)","cryo-EM structure, 2.38 Å ([1]; one of them on PsaR)","cryo-EM structure, 2.38 Å [2]"
CC1=C(C#C/C(C)=C/C=C/C(C)=C/C=C/C=C(C)/C=C/C=C(C)/C=C/[C@@]23O[C@]2(C)C[C@@H](O)CC3(C)C)C(C)(C)C[C@H](O)C1 [diadinoxanthin],two Ddx and two Fx were identified in the diatom PSI core,,
CC(=O)O[C@H]1CC(C)(C)C(=C=C/C(C)=C/C=C/C(C)=C/C=C/C=C(C)/C=C/C=C(\C)C(=O)C[C@@]23O[C@]2(C)C[C@@H](O)CC3(C)C)[C@](C)(O)C1 [fucoxanthin],,two Ddx and two Fx were identified in the diatom PSI core,binds one Chl a and one Fx
